The subject of one data set is barnyard grass. Put plainly: Experiment 2: herbicidal effects against barnyard grass (pot test, granules). The format is in vivo, Echinochloa crus-galli. As to conditions: 2.5 leaf-stage, 25 days.
Data set [1] relates to barnyard grass (Echinochloa crus-galli). As to the kind of experiment: Experiment 1: herbicidal effects against barnyard grass (pot test, emulsifiable concentrate). As to conditions: 25 days. Type of data set: in vivo.
The test system of a further data set is carps. Put plainly: Experiment 4: subacute toxicity to fish. Type of data set: in vivo, 2-year-old carps. As to conditions: 0.2 ppm; 3 weeks. The procedure: (§1) With respect to the compounds according to the present invention and the comparative compounds listed in Table 4, there were conducted tests on subacute toxicity to 2-year-old carps having an average weight of 20 g.
(§2) Ten 2-year-old carps were released in each of 25-liter water tanks equipped with an air-blowing apparatus and acclimatized to the surroundings while feeding for 10 days. Water in each of the water tanks was continuously replaced with fresh water so that the residence time of water in the water tanks is 6 hours. Each test compound was added to a predetermined quantity of supply water to prepare a 0.2 ppm aqueous solution of each compound, and each of the aqueous solutions was continuously added to the water in the tank. After three weeks, the hematocrit values of all the survival carps were determined. The hematocrit value used herein is intended to mean a volume percentage of erythrocyte contained in the blood.

The nature of data set [2]: Experiment 4: subacute toxicity to fish. The format is in vivo, 2-year-old carps. Particulars: carp, water; 0.2 ppm; 3 weeks; read-out: Survival rate after 3 weeks. The method, then:
as §1, §2

The subject of data set [3] is Mizugayatsuri (Cyperus serotinus). Put plainly: Experiment 2: herbicidal effects against Mizugayatsuri (pot test, granules). Type of data set: in vivo. Particulars: 25 days.
Data set [4] has as its system Hotarui (Scirpus juncoides). Put plainly: Experiment 2: herbicidal effects against Hotarui (pot test, granules). The format is in vivo. Particulars: 25 days.
Another data set has as its system broad-leaf weeds. As to the kind of experiment: Experiment 2: herbicidal effects against broad-leaf weeds (pot test, granules). The format is in vivo. Particulars: 25 days.
The mark [5] stands for this setting: 1.5 leaf-stage of barnyard grass, 150 g/10a.
Where [6] appears, read: 1.5 leaf-stage of barnyard grass, 300 g/10a.
[7] abbreviates: 1.5 leaf-stage of barnyard grass, 600 g/10a.
[8] abbreviates: 3 leaf-stage of barnyard grass, 150 g/10a.
The mark [9] stands for this setting: 3 leaf-stage of barnyard grass, 300 g/10a.
The mark [10] stands for this setting: 3 leaf-stage of barnyard grass, 600 g/10a.

`CC1CCCCN1C(=O)SCCCCCCl` (stereo not drawn) [Compound 2, S-(5-chloropentyl)-(2-methyl)-piperidine-1-carbothioate]: the “herbicidal activity (barnyard grass)” value (in the data set on barnyard grass (150 g/10a.); in the data set with barnyard grass (300 g/10a.); with barnyard grass (600 g/10a.); in data set [1] (setting [5]); in data set [1] (setting [6]); in data set [1] (setting [7])) was 5 (more than 90%) each time. Also, the “herbicidal activity (barnyard grass)” value in data set [1] (setting [8]), in data set [1] (setting [9]) and in data set [1] (setting [10]) was 5 (more than 90%) in each case. Further, in the data set on carps, the “Average Hematocrit Value of survival fish” value was found to be 30%. In addition, the survival at 504 h in data set [2] amounted to 100%. The “Herbicidal activity Mizugayatsuri (Cyperus serotinus)” value (from here on “Herbicidal activity Mizugayatsuri”) is on record as 3 (50 to 69%) in data set [3] (150 g/10a.), 4 (70 to 89%) in data set [3] (300 g/10a.) and 5 (more than 90%) in data set [3] (600 g/10a.). For the same compound, the “Herbicidal activity Hotarui (Scirpus juncoides)” value (“Herbicidal activity Hotarui” below) in data set [4] (150 g/10a.) is given as 3 (50 to 69%); in data set [4] (300 g/10a.) it was 4 (70 to 89%); in data set [4] (600 g/10a.) it was 5 (more than 90%). Also, the “Herbicidal activity broad-leaf weeds” value in the data set on broad-leaf weeds (150 g/10a.), in the data set with broad-leaf weeds (300 g/10a.) and in the data set with broad-leaf weeds (600 g/10a.) was 5 (more than 90%) throughout.
With `CC1CCCCN1C(=O)SCCCCCCCl` (stereo not drawn) [Compound 3, S-(6-chlorohexyl)-(2-methyl)-piperidine-1-carbothioate], the “herbicidal activity (barnyard grass)” value (in the data set with barnyard grass (150 g/10a.); in the data set with barnyard grass (300 g/10a.); in the data set with barnyard grass (600 g/10a.); in data set [1] (setting [5]); in data set [1] (setting [6]); in data set [1] (setting [7])) was 5 (more than 90%) throughout. In addition, the figures for the “herbicidal activity (barnyard grass)” value in data set [1] (setting [8]), in data set [1] (setting [9]) and in data set [1] (setting [10]) were 4 (70 to 89%), 5 (more than 90%) and 5 (more than 90%), respectively. Moreover, the “Herbicidal activity Mizugayatsuri” value is 4 (70 to 89%) in data set [3] (150 g/10a.), 4 (70 to 89%) in data set [3] (300 g/10a.) and 5 (more than 90%) in data set [3] (600 g/10a.). In addition, the “Herbicidal activity Hotarui” value in data set [4] (150 g/10a.) was 3 (50 to 69%); in data set [4] (300 g/10a.) it was 4 (70 to 89%); in data set [4] (600 g/10a.) it was 5 (more than 90%). For the same compound, the “Herbicidal activity broad-leaf weeds” value in the data set with broad-leaf weeds (150 g/10a.) is reported as 4 (70 to 89%); in the data set with broad-leaf weeds (300 g/10a.), 5 (more than 90%); in the data set with broad-leaf weeds (600 g/10a.), 5 (more than 90%).
Take `CC1CCCCN1C(=O)SCCCCCCCCCl` (stereo not drawn) [Compound 4, S-(8-chlorooctyl)-(2-methyl)-piperidine-1-carbothioate]: the “herbicidal activity (barnyard grass)” value in the data set on barnyard grass (150 g/10a.) is 4 (70 to 89%); in the data set with barnyard grass (300 g/10a.), 5 (more than 90%); in the data set with barnyard grass (600 g/10a.), 5 (more than 90%); in data set [1] (setting [5]), 5 (more than 90%); in data set [1] (setting [6]), 5 (more than 90%); in data set [1] (setting [7]), 5 (more than 90%). Moreover, the “herbicidal activity (barnyard grass)” value in data set [1] (setting [8]) is on record as 4 (70 to 89%); in data set [1] (setting [9]), 5 (more than 90%); in data set [1] (setting [10]) it was 5 (more than 90%). For the same compound, the “Herbicidal activity Mizugayatsuri” value is 2 (30 to 49%) in data set [3] (150 g/10a.), 3 (50 to 69%) in data set [3] (300 g/10a.) and 5 (more than 90%) in data set [3] (600 g/10a.). The “Herbicidal activity Hotarui” value in data set [4] (150 g/10a.) is reported as 2 (30 to 49%); in data set [4] (300 g/10a.) it was 4 (70 to 89%); in data set [4] (600 g/10a.), 5 (more than 90%). For the same compound, the “Herbicidal activity broad-leaf weeds” value is 3 (50 to 69%) in the data set on broad-leaf weeds (150 g/10a.), 4 (70 to 89%) with broad-leaf weeds (300 g/10a.) and 5 (more than 90%) in the data set on broad-leaf weeds (600 g/10a.).
With `CC1CCCCN1C(=O)SCCCCCCCCCCCl` (stereo not drawn) [Compound 5, S-(10-chlorodecyl)-(2-methyl)-piperidine-1-carbothioate], the “herbicidal activity (barnyard grass)” value in the data set with barnyard grass (300 g/10a.) is 5 (more than 90%); in the data set with barnyard grass (600 g/10a.), 5 (more than 90%); in data set [1] (setting [6]) it was 5 (more than 90%); in data set [1] (setting [7]), 5 (more than 90%); in data set [1] (setting [9]) it was 4 (70 to 89%); in data set [1] (setting [10]), 5 (more than 90%). Further, the “Herbicidal activity Mizugayatsuri” value in data set [3] (300 g/10a.) is reported as 3 (50 to 69%); in data set [3] (600 g/10a.), 5 (more than 90%). For the same compound, the “Herbicidal activity Hotarui” value was 4 (70 to 89%) in data set [4] (300 g/10a.) and 5 (more than 90%) in data set [4] (600 g/10a.). Moreover, the “Herbicidal activity broad-leaf weeds” value with broad-leaf weeds (300 g/10a.) is 4 (70 to 89%); with broad-leaf weeds (600 g/10a.), 5 (more than 90%).
For `CC1CCC(C)CN(C(=O)SCCCCCCCl)C1` (stereo not drawn) [Compound 8, S-(6-chlorohexyl)-3,6-dimethyl-hexahydro-1H-azepine-1-carbothioate], the “herbicidal activity (barnyard grass)” value in data set [1] (setting [5]), in data set [1] (setting [6]), in data set [1] (setting [7]), in data set [1] (setting [8]), in data set [1] (setting [9]) and in data set [1] (setting [10]) was 5 (more than 90%) in each case. The “Average Hematocrit Value of survival fish” value in the data set with carps was found to be 35%. In addition, the survival at 504 h in data set [2] came out at 100%.
Take `CSC(=O)N1CC(C)CCC(C)C1` (centres unmarked) [Compound 14, reference compound]: in data set [1] (setting [9]), the “herbicidal activity (barnyard grass)” value was 3 (50 to 69%).
Same read-out and setting: for `CCSC(=O)N1CC(C)CCC(C)C1` (centres unmarked) [Compound 15, reference compound] the value was 3 (50 to 69%).
For `CCCSC(=O)N1CC(C)CCC(C)C1` (centres unmarked) [Compound 16, reference compound], the “herbicidal activity (barnyard grass)” value in data set [1] (setting [9]) is 3 (50 to 69%).
On to `CCCCSC(=O)N1CC(C)CCC(C)C1` (centres unmarked) [Compound 17, reference compound], for which the “herbicidal activity (barnyard grass)” value in data set [1] (setting [9]) is 3 (50 to 69%).
On to `CCCCCCCCCCSC(=O)N1CC(C)CCC(C)C1` (centres unmarked) [Compound 19, reference compound], for which the “herbicidal activity (barnyard grass)” value in data set [1] (setting [9]) was 1 (10 to 29%).
For the compound `CC1CCC(C)CN(C(=O)SCCCCCCCl)C1` (stereo not drawn) [Compound, S-(6-chlorohexyl)-3,6-dimethyl-hexahydro-1H-azepine-1-carbothioate], the “herbicidal activity (barnyard grass)” value in the data set with barnyard grass (150 g/10a.) and with barnyard grass (300 g/10a.) was 5 (more than 90%) throughout. Besides, the results for the “Herbicidal activity Mizugayatsuri” value in data set [3] (150 g/10a.) and in data set [3] (300 g/10a.) were 2 (30 to 49%) and 4 (70 to 89%), respectively. The “Herbicidal activity Hotarui” value is recorded as 3 (50 to 69%) in data set [4] (150 g/10a.) and 5 (more than 90%) in data set [4] (300 g/10a.). Further, the “Herbicidal activity broad-leaf weeds” value was 3 (50 to 69%) in the data set with broad-leaf weeds (150 g/10a.) and 5 (more than 90%) in the data set on broad-leaf weeds (300 g/10a.).
